Data: patent publication US20240050564A1, “COMBINATION THERAPY USING AN ANTI-FUCOSYL-GM1 ANTIBODY” (BRISTOL-MYERS SQUIBB COMPANY, priority 2021, published 2024)

Key:
[1] = test system: DMS79 cells; assay: DMS-79 SCLC tumor model in mice, anti-fucosyl-GM1 and cisplatin (Example 1); assay type: in vivo, male C.B17 SCID mice; conditions: BMS-986012 0.3 mg/kg i.p. days 7, 10, 13, 17, 21; cisplatin 3 mg/kg days 7, 14, 21, 28 (alone with isotype control antibody)
Protocol: Median tumor volumes are presented for groups of 8 mice at each data point. See Example 1.
(§1) A combination therapy method of the present invention involving antibody to fucosyl-GM1 and cisplatin was tested in the DMS-79 SCLC tumor model in mice ([…] mice per group). Bepler et al. (1989) Oncogene 4:45; Pettengill (1980) Cancer 45: 906; Pettengill et al. (1980) Exp. Cell Biol. 48:279. Briefly, DMS79 cells were cultured in RPMI with 10% fetal bovine serum (FBS), 2 mM L-glutamine, […] sodium bicarbonate, 4.5 g/L glucose, 10 mM HEPES, and 10 μM NaPyr prior to subcutaneous implantation in the right flanks of male C.B17 SCID mice (5 million cells in 0.1 mL phosphate-buffered saline (PBS) and 0.1 mL […]® gelatinous protein mixture per flank). When tumors reached a mean or median size of 80-155 mm^3 estimated by L×W×H/2 using a digital calipers, mice were randomized into treatment groups (N=8 mice per group).
Anti-fucosyl-GM1 antibody BMS-986012 was administered at 0.3 mg/kg i.p. to mice on days 7, 10, 13, 17 and 21 post implantation, and cisplatin was administered at 3 mg/kg on days 7, 14, 21 and 28. Because fucosyl-GM1 is a ganglioside rather than a protein, and is the same in mice as in humans, there was no need to use a “mouse surrogate” for mouse studies. Cisplatin was administered in combination with BMS-986012 and with an isotype control antibody at 3 mg/kg as a control. […]

[2] = test system: DMS79 cells; assay: DMS-79 SCLC tumor model in mice, anti-fucosyl-GM1 and etoposide (Example 2); assay type: in vivo; conditions: BMS-986012 3 mg/kg i.p. days 7, 11, 15, 18, 21; etoposide 15 mg/kg i.p. days 7, 9, 11 (alone with isotype control antibody)
Protocol: Median tumor volumes are presented for groups of 8 mice at each data point. See Example 2.
as §1
A combination therapy method of the present invention involving antibody to fucosyl-GM1 and etoposide was tested in the DMS-79 SCLC tumor model in mice (N=9 mice per group), essentially as described in Example 1. Anti-fucosyl-GM1 antibody BMS-986012 was administered at 3 mg/kg i.p. to mice on days 7, 11, 15, 18 and 21 post-implantation, and etoposide was administered at 15 mg/kg i.p. on days 7, 9 and 11. […]

[3] = Binding of BMS-986012 to fucosyl-GM1
Description: (§2) BMS-986012 is a first-in-class fully human monoclonal antibody (mAb) that specifically binds to the fucosyl-GM1 ganglioside. […] Because fucosyl-GM1 is preferentially found on the surface of lung cancer cells, BMS-986012 is particularly well suited to treating lung cancer, such as small cell lung cancer (SCLC).

[4] = Binding to closely related molecule GM1
Description: as §2

[5] = test system: Fc receptors; conditions: non-fucosylated Fc domain; cited from earlier work
[6] = non-fucosylated, compared to an antibody with typical mammalian glycosylation; cited from earlier work
[7] = test system: small cell lung cancer (SCLC); conditions: nivolumab monotherapy, 147 patients; cited from earlier work

## N.N.[Cl][Pt][Cl] [cisplatin, reference compound]
[1]
  tumor growth (median tumor volume, FIG. 1): effective as monotherapy to reduce tumor growth

## COc1cc([C@@H]2c3cc4c(cc3[C@@H](O[C@@H]3O[C@@H]5CO[C@@H](C)O[C@H]5[C@H](O)[C@H]3O)[C@H]3COC(=O)[C@H]23)OCO4)cc(OC)c1O [etoposide, reference compound]
[2]
  tumor growth (median tumor volume, FIG. 2): somewhat effective as monotherapy to reduce tumor growth

## BMS-986012: anti-fucosyl-GM1 mAb comprising heavy chains of SEQ ID NO: 3 and light chains of SEQ ID NO: 4
[3]
  binding to fucosyl-GM1: high-affinity and dose-dependent saturable binding
[4]
  antigen-specific binding to GM1: no detectable antigen-specific binding
[1]
  tumor growth (median tumor volume, FIG. 1): effective as monotherapy to reduce tumor growth
[2]
  tumor growth (median tumor volume, FIG. 2): somewhat effective as monotherapy to reduce tumor growth
[5]
  affinity for Fc receptors: higher affinity
[6]
  antibody-dependent cellular cytotoxicity (ADCC): enhanced

## nivolumab: anti-PD-1 mAb comprising heavy chains of SEQ ID NO: 13 and light chains of SEQ ID NO: 14
[7]
  published ORR: 12%
  published disease control rate: 29%
